Source: patent publication EP4813381A1, “PHARMACEUTICAL USE OF GUAIANE SESQUITERPENE DERIVATIVE” (Nanjing University Of Chinese Medicine, priority 2023, dated 2025)

What was measured:
[1] = system: inflammatory cytokines (IL-1β, IL-6); assay: LPS acute lung injury model in mice: ELISA of inflammatory cytokines; type: in vivo, C57BL/6 mice
From the text: The abdomen was opened, and the lungs were removed. They were rinsed twice with pre-chilled PBS. […] P values less than 0.05 were considered statistically significant.

[2] = system: acute kidney injury induced by folic acid; assay: Folic acid acute kidney injury model in mice: serum creatinine (Scr) and blood urea nitrogen (BUN); type: in vivo, C57BL/6 mice; conditions: acute model (FA), 3 days
[3] = system: chronic kidney injury induced by unilateral ureteral ligation; assay: Unilateral ureteral ligation (UUO) chronic kidney injury model in mice: Scr and BUN; type: in vivo, C57BL/6 mice; conditions: serum, 14 days
[4] = system: renal injury markers (Ngal, Havcr1), inflammatory cytokines (TNF, IL-6, IL-1), fibrosis-related factors (α-Sma, Col1a1, Tgfb1); assay: Unilateral ureteral ligation (UUO) chronic kidney injury model in mice: Q-PCR of kidney tissue; type: in vivo, C57BL/6 mice; parameters: Tnf / Il1 / Il6: unit not given here; conditions: kidney mRNA
[5] = system: Th2-related factors Il4, Il13, Il31 and inflammatory factors Tslp, Tnf, Il1; assay: MC903-induced ear atopic dermatitis mouse model, Compound 1 ointment: Q-PCR of ear; type: in vivo; parameters: unit not given here; conditions: ear mRNA, AD mice
Experimental: Except for the Normal group, all other groups underwent AD modeling: 20 µL of MC903 solution (also known as calcipotriol, purchased from Shanghai Yuanye Biotechnology Co., Ltd., used for inducing atopic models) was applied to each mouse's ears once daily for 14 consecutive days to induce the atopic dermatitis model. […] Measure ear thickness changes every 2 days using an electronic caliper before modeling and after treatment initiation.

[6] = Conversion rate of salt-form prodrugs to parent compound in HEPES buffer solution; type: physicochemical; conditions: conversion to Compound 1, HEPES buffer pH 7.4, 37 °C
Outline: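 Salt-form prodrug dissolved in water was mixed 1:1 with HEPES buffer pH 7.4 (or mouse serum) and incubated at 37°C. Aliquots were quenched with methanol and centrifuged, and supernatants taken at 1, 2, 4, 8 and 12 h were analysed by HPLC. Conversion was followed by peak areas.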

Hepa1-6 cells = assay: Hepa1-6 mouse hepatocellular carcinoma subcutaneous xenograft model; type: in vivo, C57BL/6 mice; conditions: Hepa1-6, oral 40 µmol/kg/d, 2 weeks
Experimental: Hepa1-6 cells were cultured and expanded in vitro. An appropriate amount of cells in the logarithmic growth phase was resuspended in a mixture of serum-free DMEM medium and Matrigel (1:1). under aseptic conditions to prepare a 2.5×10^6/100 µL cell suspension. A 100 µL aliquot of this suspension was injected subcutaneously into the left forearm axilla of male C57BL/6 mice. […] Daily oral administration was performed for 2 weeks. During the treatment period, mouse body weight and tumor diameter were measured daily. At the end of the experiment, mice were euthanized by cervical dislocation, and tumors were removed for weighing. Tumor volume (TV) was calculated using the formula: TV = 1/2 × a × b^2, where a represents the longest diameter of the tumor and b represents the shortest diameter.

CT26 cells = type: in vivo, BALB/c mice; conditions: CT26, oral 80 µmol/kg/day, 3 weeks
4T1 cells = type: in vivo, BALB/c mice; conditions: 4T1, oral 40 µmol/kg/day, 3 weeks
Experimental: 4T1 cells were cultured and expanded in vitro. […] A 100 µL aliquot of this suspension was injected subcutaneously into the left forelimb axilla of female BALB/c mice. […] Daily oral administration was performed for 3 weeks. During the treatment period, mouse body weight and tumor diameter were measured daily. At the end of the experiment, mice were euthanized by cervical dislocation, and tumors were removed for weighing. Tumor volume (TV) was calculated using the formula: TV = 1/2 × a × b^2, where a represents the longest diameter of the tumor and b represents the shortest diameter.

[7] = Safety evaluation of Compound 20: 30-day oral gavage in mice (body weight, activity status, survival rate)
[8] = oral gavage 0.1 mg/kg for three days
[9] = oral gavage 1 mg/kg for three days

C=C1C(=O)O[C@@H]2[C@@H]3[C@]4(CC[C@@]3(C)O)C[C@]4(C)CC[C@@H]12 [compound 1]
IL-1β [1, 8]: 1824.88 ± 32.73 pg/mL
IL-6 [1, 8]: 2760.57 ± 288.02 pg/mL
IL-1β [1, 9]: 945.66 ± 36.71 pg/mL
IL-6 [1, 9]: 1314.91 ± 231.08 pg/mL
BUN ([2]; oral gavage 0.1 mg/kg): 31.46±2.54
Scr ([2]; oral gavage 0.1 mg/kg): 108.48±11.76
BUN ([2]; oral gavage 1 mg/kg): 21.33±2.21
Scr ([2]; oral gavage 1 mg/kg): 71.95±5.74
BUN ([3]; oral gavage 0.1 mg/kg): 18.41±1.82
Scr ([3]; oral gavage 0.1 mg/kg): 176.35±17.11
BUN ([3]; oral gavage 1 mg/kg): 11.01±1.54
Scr ([3]; oral gavage 1 mg/kg): 104.65±16.26
Col1a1 ([4]; oral 0.1 mg/kg): 16.09±3.57
Havcr1 ([4]; oral 0.1 mg/kg): 12.56±1.95
Il1 ([4]; oral 0.1 mg/kg): 6.05±0.49
Il6 ([4]; oral 0.1 mg/kg): 16.52±1.69
Ngal ([4]; oral 0.1 mg/kg): 37.82±4.85
Tgfb1 ([4]; oral 0.1 mg/kg): 2.04±0.24
Tnf ([4]; oral 0.1 mg/kg): 6.41±1.46
α-Sma ([4]; oral 0.1 mg/kg): 2.32±0.54
Col1a1 ([4]; oral 1 mg/kg): 9.45±1.03
Havcr1 ([4]; oral 1 mg/kg): 8.54±1.38
Il1 ([4]; oral 1 mg/kg): 3.99±0.31
Il6 ([4]; oral 1 mg/kg): 6.50±1.51
Ngal ([4]; oral 1 mg/kg): 21.66±6.00
Tgfb1 ([4]; oral 1 mg/kg): 1.55±0.19
Tnf ([4]; oral 1 mg/kg): 6.59±1.19
α-Sma ([4]; oral 1 mg/kg): 1.54±0.12
Il1 ([5]; 0.01% ointment): 19.67 ± 5.26
Il4 ([5]; 0.01% ointment): 3.62 ±0.97
Il13 ([5]; 0.01% ointment): 3.30 ±0.47
Il31 ([5]; 0.01% ointment): 2.31 ±0.28
TSLP ([5]; 0.01% ointment): 2.24 ±0.25
Tnf ([5]; 0.01% ointment): 2.35 ±0.39
Il1 ([5]; 0.1% ointment): 9.89 ±3.44
Il4 ([5]; 0.1% ointment): 1.95 ±0.66
Il13 ([5]; 0.1% ointment): 2.85 ±0.48
Il31 ([5]; 0.1% ointment): 1.64 ±0.25
TSLP ([5]; 0.1% ointment): 1.42 ±0.16
Tnf ([5]; 0.1% ointment): 1.34 ±0.41
Il1 ([5]; 1% ointment): 5.69±1.12
Il4 ([5]; 1% ointment): 1.17±0.37
Il13 ([5]; 1% ointment): 1.56±0.20
Il31 ([5]; 1% ointment): 1.10±0.19
TSLP ([5]; 1% ointment): 1.12±0.07
Tnf ([5]; 1% ointment): 1.01±0.40

CN(C)C[C@@H]1C(=O)O[C@H]2[C@H]1CC[C@@]1(C)C[C@]13CC[C@@](C)(O)[C@H]23 [compound 20]
Release rate ([6]; 1 h): 6.2%
Release rate ([6]; 2 h): 13.8%
Release rate ([6]; 4 h): 21.7%
Release rate ([6]; 8 h): 44.3%
Release rate ([6]; 12 h): 59.1%
BUN ([2]; oral gavage 1 mg/kg): 16.74±1.42
Scr ([2]; oral gavage 1 mg/kg): 64.94±9.68
BUN ([3]; oral gavage 1 mg/kg): 9.39±0.92
Scr ([3]; oral gavage 1 mg/kg): 64.50±7.13
α-Sma ([4]; oral 1 mg/kg, 1 mg/kg): 1.26±0.18
Tumor Inhibition Rate (%) (Hepa1-6 cells): 96.78%
Tumor weight (Hepa1-6 cells): 0.03 ± 0.02 g
antitumor effects (CT26 cells): tumor-inhibiting effects
antitumor effects (4T1 cells): no significant antitumor effects
effect on mouse survival rate ([7]; 500 mg/kg and 1000 mg/kg, 30 days): no significant effect on the survival rate
time to recover to normal activity after administration ([7]; 500, 1000 mg/kg oral gavage): 1 to 2 h
effect on mouse activity status ([7]; 500, 1000 mg/kg oral gavage once daily, 30 days): relatively reduced activity and lethargy after each administration
effect on mouse body weight ([7]; 500, 1000 mg/kg oral gavage once daily, 30 days, female and male mice): no significant effect on the body weight
Survival rate ([7]; female C57BL/6 mice, 500 mg/kg oral gavage once daily for 30 days): 100%
Survival rate ([7]; female C57BL/6 mice, 1000 mg/kg oral gavage once daily for 30 days): 100%
Survival rate ([7]; male C57BL/6 mice, 500 mg/kg oral gavage once daily for 30 days): 100%
Survival rate ([7]; male C57BL/6 mice, 1000 mg/kg oral gavage once daily for 30 days): 100.00%
